Read-outs that look alike come from different tables or passages of the source.
Assays:
CCRF-SB (Leukemia) = experiment: Cell line screen, CCRF-SB; type: cell-based; conditions: Homo sapiens, AICDA Expression High
Method: (§1) The activity of the claimed compounds was measured in a variety of cell lines with different expression levels of activation induced cytidine deaminase (AICDA). The potency assay was repeated in all of the listed cell lines and the EC50 values recorded.

[1] = tested on: WI-38 cells (AID negative); experiment: Primary screening cell killing assay repeated in WI-38 cells (AID negative); type: cell-based; conditions: Homo sapiens, 168 h, cell death on Day 7, Cell-Titer Glo
In short: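 Cell-killing counter-screen in AID-negative WI-38 cells, probing RAD51 inhibition via AID/RAD51 synthetic lethality. Viability luminescence (RLU) was media-subtracted, normalized to DMSO wells, and converted to percent kill (1 − normalized RLU) × 100; EC50 came from non-linear regression on a semi-log scale.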

[2] = tested on: WI-38 (Normal Human Lung Fibroblast); experiment: Cell line screen, WI-38; type: cell-based; conditions: AICDA Expression Negative
Method: as §1

[3] = Pharmacokinetic (PK) study, plasma by LC-MS; type: in vivo, Rat; conditions: po @ 80 mg/kg (30% PEG400, 10% Vitamin E TPGS in water); for half-life: plasma
Method: PK studies in mice were used to determine the fate of the compounds in a whole organism. Rats were treated with the compounds either orally of via IV at the indicated doses and followed for up to 24 hours. Plasma samples were taken at different time points and analyzed by LC-MS.

U-698-M (Lymphoma) = experiment: Cell line screen, U-698-M; type: cell-based; conditions: AICDA Expression High
Method: as §1

WSU-FSCCL (Lymphoma) = experiment: Cell line screen, WSU-FSCCL; type: cell-based; conditions: AICDA Expression Negative
Method: as §1

KYSE-70 (Head and Neck) = experiment: Cell line screen, KYSE-70; type: cell-based; conditions: Homo sapiens, AICDA Expression Low
Method: as §1

KYSE-510 (Head and Neck) = experiment: Cell line screen, KYSE-510; type: cell-based; conditions: Homo sapiens, AICDA Expression Negative
Method: as §1

Daudi (Lymphoma) = experiment: Cell line screen, Daudi; type: cell-based; conditions: Homo sapiens, AICDA Expression High
Method: as §1

KG-1 (Leukemia) = experiment: Cell line screen, KG-1; type: cell-based; conditions: AICDA Expression Negative
Method: as §1

[4] = Human liver microsome stability; type: in vitro ADME; conditions: human liver microsomes; for half-life / microsomal CLint: 37° C., 45 minutes; for microsomal CLint: read-out: Clearance (μg/min/mg)
Method: The stability of the claimed compounds was determined in the presences of human liver microsomes. The compounds were incubated with the microsomes at 37° C. for 45 minutes. Samples were analyzed using LC-MS/MS. Data analysis included half-life, clearance rate, and the percentage of hepatic blood flow (% QH) for each of the compounds in the different species.

[5] = tested on: ARPE19/HPV16 (HPV Immortalized RPE); experiment: Cell line screen, ARPE19/HPV16; type: cell-based; conditions: ARPE-19, AICDA Expression Negative
Method: as §1

[6] = Bi-directional Caco-2 permeability; type: in vitro ADME; conditions: human; for efflux ratio at 90 min: Caco-2, read-out: BA/AB Ratio; for Papp A→B at 90 min: Caco-2, apical to basolateral, read-out: AB Papp (cm/sec × 10^6); for Papp A→B at 90 min / Papp B→A at 90 min: 37 C, up to 90 minutes; for Papp B→A at 90 min: Caco-2, basolateral to apical, read-out: BA Papp (cm/sec × 10^6)
Method: (§2) Bi-directional Caco-2 permeability was assayed. Caco-2 cells were seeded onto permeable polycarbonate supports and allowed to differentiate for about 3 weeks prior to being used in the assays. The cells were then exposed to the compounds from either the apical or basolateral sides and incubated at 37 C for up to 90 minutes under light agitation. Compound transport was then measured using LC/MS/MS analysis at 30, 60, and 90 minutes.

[7] = tested on: Daudi cell line (AID positive); experiment: Primary screening cell killing assay, Daudi cell line (AID positive); type: cell-based; conditions: Homo sapiens, 168 h, cell death on Day 7, Cell-Titer Glo
In short: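 AID-positive Daudi cells, 1250 per well, were exposed to serially diluted compounds for 7 days at 37° C. Viability read by CellTiter-Glo luminescence; percent cell death and EC50 derived against untreated wells after media-blank subtraction.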

TOV-1120D (Ovary) = experiment: Cell line screen, TOV-1120D; type: cell-based; conditions: AICDA Expression Negative
Method: as §1

OV56 (Ovary) = experiment: Cell line screen, OV56; type: cell-based; conditions: AICDA Expression Low
Method: as §1

Caco-2 cells = experiment: Bi-directional Caco-2 permeability; type: in vitro ADME; conditions: Caco-2
Method: as §2

[8] = Caco-2, Caco-2, AB direction, read-out: AB Recovery %
[9] = Caco-2, Caco-2, BA direction, read-out: BA Recovery %

Row | Compound | recovery at 90 min [6, 8] | recovery at 90 min [6, 9] | efflux ratio at 90 min [6] | Papp A→B at 90 min [6] | Papp B→A at 90 min [6] | EC50 (CCRF-SB (Leukemia)) | EC50 [1] | EC50 [2] | F (%) @ 5 mg/kg ([3]; Rat Female) | F (%) @ 5 mg/kg ([3]; Rat Male) | half-life ([3]; Rat Female) | half-life ([3]; Rat Male) | EC50 (U-698-M (Lymphoma)) | EC50 (WSU-FSCCL (Lymphoma)) | EC50 (KYSE-70 (Head and Neck)) | EC50 (KYSE-510 (Head and Neck)) | EC50 (Daudi (Lymphoma)) | EC50 (KG-1 (Leukemia)) | % QH (percentage of hepatic blood flow) [4] | EC50 [7] | further results
1 | CC(C)OC(=O)N[C@H]1CC[C@H](c2ncc(-c3ccc(NC(=O)NCc4ncccc4F)cc3S(=O)(=O)NC(C)(C)C)s2)CC1 [Ex. 31, isopropyl ((1r,4r)-4-(5-(2-(N-(tert-butyl)sulfamoyl)-4-(3-((3-fluoropyridin-2-yl)methyl)ureido)phenyl)thiazol-2-yl)cyclohexyl)carbamate] | 70.5% | 92.3% | 1.1 | 128 nm/s | 136 nm/s | 2.16 µM | > 1 µM | > 10 µM | 2.77% | 1.49% | 4.75 h | 3.79 h | 0.031 µM | < 0.04 µM | 4.7 µM | > 10 µM | 0.02 µM | 8.79 µM | 77.3% | ≤ 0.1 µM | half-life [4]: 0.373 h; microsomal CLint [4]: 61.9 µL/min/mg; EC50 [5]: > 10 µM
2 | CC(C)OC(=O)N[C@H]1CC[C@H](c2ncc(-c3ccc(NC(=O)NCc4ccccn4)cc3S(=O)(=O)NC(C)(C)C)s2)CC1 [Ex. 29, isopropyl ((1r,4r)-4-(5-(2-(N-(tert-butyl)sulfamoyl)-4-(3-(pyridin-2-ylmethyl)ureido)phenyl)thiazol-2-yl)cyclohexyl)carbamate] | 93.9% | 90.9% | 2.2 | 109 nm/s | 241 nm/s | 1.28 µM | > 1 µM | > 10 µM | 8.39% | 3.69% | 4.66 h | 3.97 h | 0.113 µM | 0.067 µM | 4.66 µM | > 10 µM | 0.043 µM | > 10 µM | 78.8% | ≤ 0.1 µM | EC50 (TOV-1120D (Ovary)): 9.17 µM; EC50 (OV56 (Ovary)): 9.09 µM; half-life [4]: 0.342 h; microsomal CLint [4]: 68 µL/min/mg; EC50 [5]: > 10 µM
3 | CC(C)OC(=O)Nc1ccc(-c2cnc([C@@H]3CC[C@@H](NC(=O)OC(C)C)CO3)s2)c(S(=O)(=O)NC(C)(C)C)c1 (relative stereo) [Ex. 60, trans-isopropyl N-[6-[5-[2-(tert-butylsulfamoyl)-4-(isopropoxycarbonylamino)phenyl]thiazol-2-yl]tetrahydropyran-3-yl]carbamate] | – | – | – | – | – | – | > 1 µM | – | – | – | – | – | – | – | – | – | – | – | – | 0.1 to 1 µM | BA/AB Ratio (Caco-2 cells): 0.9
4 | CC(C)OC(=O)Nc1ccc(-c2cnc(C3CCC(NC(=O)OC4COC4)CC3)s2)c(S(=O)(=O)NC(C)(C)C)c1 (stereo not drawn) [Ex. 48, oxetan-3-yl ((1r,4r)-4-(5-(2-(N-(tert-butyl)sulfamoyl)-4-((isopropoxycarbonyl)amino)phenyl)thiazol-2-yl)cyclohexyl)carbamate] | 80.1% | 90.3% | 0.7 | 231 nm/s | 160 nm/s | – | > 1 µM | – | – | – | – | – | – | – | – | – | – | – | – | 0.1 to 1 µM | –

Second part, led by results:

Row | recovery at 90 min [6, 8] | recovery at 90 min [6, 9] | efflux ratio at 90 min [6] | Papp A→B at 90 min [6] | Papp B→A at 90 min [6] | Compound | EC50 (CCRF-SB (Leukemia)) | EC50 [1] | EC50 [2] | F (%) @ 5 mg/kg ([3]; Rat Female) | F (%) @ 5 mg/kg ([3]; Rat Male) | half-life ([3]; Rat Female) | half-life ([3]; Rat Male) | EC50 (U-698-M (Lymphoma)) | EC50 (WSU-FSCCL (Lymphoma)) | EC50 (KYSE-70 (Head and Neck)) | EC50 (KYSE-510 (Head and Neck)) | EC50 (Daudi (Lymphoma)) | EC50 (KG-1 (Leukemia)) | % QH (percentage of hepatic blood flow) [4] | EC50 [7] | further results
5 | 56.2% | 82% | 2.1 | 46 nm/s | 97 nm/s | CC(C)OC(=O)N[C@H]1CC[C@H](c2ncc(-c3ccc(NC(=O)NCc4ccccc4)cc3S(=O)(=O)NC(C)(C)C)s2)OC1 [Ex. 59B] | – | > 1 µM | – | – | – | – | – | – | – | – | – | – | – | – | ≤ 0.1 µM | –
6 | 65.3% | 80.7% | 1.4 | 87 nm/s | 124 nm/s | CC(C)(C)NS(=O)(=O)c1cc(NC(=O)NCc2ccccc2)ccc1-c1cnc([C@H]2CC[C@H](NC(=O)OC3COC3)CC2)s1 [Ex. 47, trans-oxetan-3-yl N-[4-[5-[4-(benzylcarbamoylamino)-2-(tert-butylsulfamoyl)phenyl]thiazol-2-yl]cyclohexyl]carbamate] | – | > 1 µM | – | – | – | – | – | – | – | – | – | – | – | – | ≤ 0.1 µM | –

Reference: US10336746B1, “RAD51 inhibitors” (Cyteir Therapeutics, Inc., priority 2017, dated 2019)
